From patent US20250320190A1, “Novel Inhibitors of Leucine Carboxyl Methyltransferase-1 (LCMT-1) and Methods of Use Thereof” (Temple University-Of The Commonwealth System of Higher …, priority 2024, published 2025)

Columns and labels:
Type in all cases: cell-based, human
[1] = test system: MCF7 cells; experiment: Annexin V assay; conditions: 5-20 μM, 48 hours
Description: (§1) MCF7, MDA-MB-231 and Rosi cells were treated with LB-100 and Compound 2 at 5-20 μM concentrations. After 48 hours, cells were lifted with Accutase and washed twice with PBS (pH 7.4) with 10% FBS. Cells were resuspended in annexin V binding buffer (10 mM HEPES (pH 7.4), 140 mM NaCl and 2.5 mM CaCl2)) and labeled with FITC-anti-Annexin V and 7-AAD (Biolegend, FITC Annexin V Apoptosis Detection Kit with 7-AAD, catalog #640922). Cell surface annexin V expression was assessed with flow cytometry.

[2] = test system: MDA-MB-231 cells; experiment: Annexin V assay; conditions: 5-20 μM, 48 hours
Description: as §1

[3] = test system: UM-SCC-12 cells; experiment: Radiosensitization assay (crystal violet); conditions: irradiated 8 Grays 3 hours after compound, viability after 24 hours
Description: (§2) MCF7, MDA-MB-231, 501-MEL, Rosi, A549, SCC-15, SCC-25, UM-SCC-12, UM-SCC-14a, UM-SCC-49 and UM-SCC69 cells were seeded in 96-well tissue culture plates as previously described. After 24 hours, the media were changed to media with LCMT-li at various concentrations as described. After 3 hours, cells were irradiated at doses listed in Table 2 with an RS-2000 X-Ray Irradiator (Rad Source Technologies, Buford, Georgia). Radiation doses were based on published radiosensitization studies. After 24 hours cell viability was assessed using crystal violet staining. Briefly, cells were washed with PBS, then stained with crystal violet solution (0.25 g crystal violet in 20% methanol) for 20 minutes with agitation. The wells were washed 6 times with PBS to remove excess crystal violet. Plates were allowed to dry for 48 hours, and then 200 μL methanol was added to each well. The plates were agitated for 20 minutes to dissolve the crystal violet, and absorbance was read at 560 nm. The
(§3) radiosensitization assays were performed twice, each time with eight replicates per condition.

[4] = test system: UM-SCC-69 cells; experiment: Radiosensitization assay (crystal violet); conditions: irradiated 8 Grays 3 hours after compound, viability after 24 hours, listed as LCMT-li
Description: as §2, §3

[5] = test system: Rosi cells; experiment: Radiosensitization assay (crystal violet)
Description: as §2, §3

[6] = test system: UM-SCC-49 cells; experiment: Radiosensitization assay (crystal violet); conditions: irradiated 8 Grays 3 hours after compound, viability after 24 hours, listed as LCMT-li
Description: as §2, §3

[7] = test system: MCF7 cells; experiment: Radiosensitization assay (crystal violet); conditions: 4 Grays
Description: as §2, §3

[8] = test system: SCC-15 cells; experiment: Radiosensitization assay (crystal violet); conditions: irradiated 8 Grays 3 hours after compound, viability after 24 hours, listed as LCMT-li
Description: as §2, §3

[9] = test system: 501-MEL cells; experiment: Radiosensitization assay (crystal violet); conditions: 8 Grays
Description: as §2, §3

[10] = test system: SCC-25 cells; experiment: Radiosensitization assay (crystal violet); conditions: irradiated 8 Grays 3 hours after compound, viability after 24 hours
Description: as §2, §3

[11] = test system: A549 cells; experiment: Radiosensitization assay (crystal violet); conditions: 4 Grays
Description: as §2, §3

[12] = test system: MDA-MB-231 cells; experiment: Radiosensitization assay (crystal violet); conditions: 10 Grays, data not shown
Description: as §2, §3

[13] = test system: Rosi cells; experiment: Cell cycle analysis (BrdU flow cytometry); conditions: 20 μM, 24 hours
Description: (§4) MCF7, MDA-MB-231 and Rosi cells were seeded in 6-well tissue culture plates (Celltreat) at a density of 5×10^5 cells per well. After 24 hours, the DMEM was changed to media containing 20 μM LB-100 or Compound 2. Control cells were given fresh media. After 24 hours, cells were labeled with 50 μM bromodeoxyuridine (BrdU, BioGems, Westlake Village, California, catalog #5911439). Cells were lifted with 0.25% trypsin, 2.21 mM ethylenediaminetetraacetic acid (Corning catalog #25-053-CI) after 4 hours and fixed with 70% ethanol overnight at 4° C. Cells were pelleted and cellular DNA was denatured with HCl. After neutralization with 1 M Tris, pH 8.5, cells were labeled with FITC-anti-BrdU (Biolegend, San Diego, California, catalog #364104, 5 μL/100 μL cell suspension) and 7-aminoactinomycin-D (7-AAD, Biolegend, catalog #420404, 1 μL/100 μL cell suspension). Cells were analyzed with a Becton-Dickinson FACSymphony™ flow cytometer. Cell cycle analyses were performed three times.

[14] = test system: MCF7 cells; experiment: Cell cycle analysis (BrdU flow cytometry); conditions: 20 μM, 24 hours
Description: as §4

[15] = test system: MDA-MB-231 cells; experiment: Cell cycle analysis (BrdU flow cytometry); conditions: 20 μM, 24 hours
Description: as §4

[16] = test system: UM-SCC-12 cells; experiment: DDR analysis (activated γ-H2AX flow cytometry); conditions: LCMT-li alone vs control cells, 24 hours
Description: (§5) Cells were treated with LCMT-li, radiotherapy or both as described for Annexin V assays. After 24 hours, cells were lifted with 0.25% trypsin, 2.21 mM EDTA, stained with Ghost Dye™ 710 and fixed with formaldehyde as described. Cells were washed with PBS with 1% BSA, and permeabilized with PBS with 0.1% Triton X-100 on ice for 10 minutes. Cells were pelleted and washed twice with PBS with 0.02% Triton X-100. Cells were resuspended in PBS with 1% BSA and 0.3% Tween-20, and stained with FITC-anti-activated-γ-H2AX (Biolegend, catalog #613404). Cells were pelleted and washed with PBS with 1% BSA and 0.1% sodium azide. DDR analyses were performed twice with 12 replicates, 104 cells/replicate.

[17] = test system: UM-SCC-14a cells; experiment: DDR analysis (activated γ-H2AX flow cytometry); conditions: LCMT-li alone vs control cells, 24 hours
Description: as §5

[18] = test system: UM-SCC-69 cells; experiment: DDR analysis (activated γ-H2AX flow cytometry)
Description: as §5

[19] = test system: UM-SCC-49 cells; experiment: DDR analysis (activated γ-H2AX flow cytometry); conditions: LCMT-li alone vs control cells, 24 hours
Description: as §5

[20] = test system: SCC-25 cells; experiment: DDR analysis (activated γ-H2AX flow cytometry); conditions: LCMT-li alone vs control cells, 24 hours
Description: as §5

**Q.** With `COC(=O)c1c(NC(=O)c2ccccc2C)sc(C(=O)Nc2cccc(C)c2)c1C` [Compound 2, methyl 4-methyl-2-[(2-methylbenzoyl)amino]-5-[[(3-methylphenyl)amino]carbonyl]-3-thiophenecarboxylate] as the compound, how does the “apoptosis (cell surface annexin V expression)” value [1] read?
**A.** decreased cell surface annexin V

**Q.** And the “apoptosis (cell surface annexin V expression)” value [2]?
**A.** increased cell surface annexin V expression

**Q.** And the “LCMT-1i radiosensitizing Concentration” value [3]?
**A.** 200 µM

**Q.** And the “LCMT-1i radiosensitizing Concentration” value [4]?
**A.** 2.5 to 10 µM

**Q.** What about the radiosensitization ([5]; 8 Grays) of the same compound?
**A.** demonstrated radiosensitization

**Q.** And the “LCMT-1i radiosensitizing Concentration” value ([5]; irradiated 8 Grays 3 hours after compound, viability after 24 hours)?
**A.** 50 µM

**Q.** What about the “LCMT-1i radiosensitizing Concentration” value [6] of the same compound?
**A.** 2.5 to 10 µM

**Q.** What about the radiosensitization [7] of the same compound?
**A.** did sensitize MCF7 cells to irradiation

**Q.** And the “LCMT-1i radiosensitizing Concentration” value [8]?
**A.** 2.5 to 10 µM

**Q.** What about the radiosensitization [9] of the same compound?
**A.** did radiosensitize these cells

**Q.** And the “LCMT-1i radiosensitizing Concentration” value ([10]; listed as LCMT-1i)?
**A.** 1.25 µM

**Q.** What about the “LCMT-1i radiosensitizing Concentration” value ([10]; listed as LCMT-li) of the same compound?
**A.** 2.5 to 10 µM

**Q.** What about the radiosensitization [11] of the same compound?
**A.** demonstrated radiosensitization

**Q.** And the radiosensitization [12]?
**A.** did not radiosensitize MDA-MB-231 cells

**Q.** And the cell cycle effect [13]?
**A.** induced G0/G1 arrest

**Q.** And the cell cycle effect [14]?
**A.** did not change cell cycle dynamics

**Q.** And the cell cycle effect [15]?
**A.** did not change cell cycle dynamics

**Q.** What about the “activated γ-H2AX expression” value [16] of the same compound?
**A.** decreased activated γ-H2AX expression

**Q.** What about the “activated γ-H2AX expression” value [17] of the same compound?
**A.** decreased activated γ-H2AX expression

**Q.** What about the “activated γ-H2AX expression” value ([18]; LCMT-li alone vs control cells, 24 hours) of the same compound?
**A.** decreased activated γ-H2AX expression

**Q.** And the “DDR (activated γ-H2AX expression)” value ([18]; in the presence of irradiation)?
**A.** inhibited DDR as evidenced by persistent activated γ-H2AX expression

**Q.** And the “activated γ-H2AX expression” value [19]?
**A.** decreased activated γ-H2AX expression

**Q.** And the “activated γ-H2AX expression” value [20]?
**A.** increased activated γ-H2AX expression
